Drawing on patent US8163785B2, “Pyrazolo[5,1b]oxazole derivatives as CRF-1 receptor antagonists” (Novartis AG, priority 2010, dated 2012), this text covers IC50 for 1 molecule.

The target of the assay is T1, human recombinant CRF-1 receptor (Homo sapiens, UniProt P34998).
T1 construct: expressed in transfected cells; host or cells: Chinese hamster ovary (CHO) cells, G418-selected
T1 sequence (P34998 24-415): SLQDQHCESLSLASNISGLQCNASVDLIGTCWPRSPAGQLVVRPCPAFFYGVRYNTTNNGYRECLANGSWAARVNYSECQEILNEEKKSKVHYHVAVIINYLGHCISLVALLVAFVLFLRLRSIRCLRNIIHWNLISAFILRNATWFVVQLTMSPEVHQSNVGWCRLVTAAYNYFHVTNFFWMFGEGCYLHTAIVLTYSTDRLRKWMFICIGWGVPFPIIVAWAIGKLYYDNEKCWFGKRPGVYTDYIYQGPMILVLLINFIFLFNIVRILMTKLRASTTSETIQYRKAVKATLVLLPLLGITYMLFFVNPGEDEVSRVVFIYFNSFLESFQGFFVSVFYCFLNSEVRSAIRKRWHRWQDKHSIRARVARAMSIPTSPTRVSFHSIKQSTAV
Briefly: CRF-1 receptor antagonism, HTRF cAMP assay in CHO cells in the presence of 1 nM CRF. Type of assay: cell-based. The conditions noted are these: CHO cells expressing human recombinant CRF-1; inhibition of the effect of 1 nM CRF on cAMP; read-out: hCRF1ANTAG/IC50. How it is done: The CRF-1 or CRF-2a receptor activity of the agents of the invention has been determined in vitro in the following way:
Chinese hamster ovary (CHO) cells expressing either the human recombinant CRF-1 or CRF-2a receptors (Chen et al., Proc Natl Acad Sci USA 90, 8967-8971, 1993; Liaw et al., Endocrinology 137, 72-77, 1996) are propagated in Dulbecco's modified Eagle medium supplemented with 10% foetal calf serum, non-essential amino acids, 100 U/ml penicillin, 100 mg/l streptomycin and 1 g/l geneticin (G418). For cyclic AMP determinations the Homogeneous Time-Resolved Fluoresce (HTRF) cAMP dynamic 2 kit (Cishbio International, France) was used as per manufacturers' instructions. CHO cells, previously cryopreserved, were thawed, centrifuged for 7 mins at 1200 rpm and resuspended in serum free media, then pipetted out onto clear bottomed black tissue culture treated 384-well microtitre plates (Corning Inc, US) at 2,000 cells per well. […] The plate is read on the Pherastar (BMG, Germany). […] Values represented by a change in arbitrary fluorescence units are converted into cAMP concentrations by use of a standard curve the reagents for which are supplied with the kit. […] IC50 values of antagonists are calculated by fitting the percent inhibition of the effect of CRF by increasing concentrations of the antagonists. […]
(Time-resolved FRET reads energy transfer from a long-lived donor to a nearby acceptor.)

Consider `Cc1nc(C)n(-c2c(C)nn3c(-c4ccc(OC(F)F)cc4C)c(C)oc23)n1` [Example 1, 3-(4-(Difluoromethoxy)-2-methylphenyl)-7-(3,5-dimethyl-1H-1,2,4-triazol-1-yl)-2,6-dimethylpyrazolo[5,1-b]oxazole], for which the IC50 worked out at 0.071 µM.
